Values quoted from earlier work as cited in patent publication US20140243428A1, “SELF HEALING HYDROGELS” (The Regents of the University of California, priority 2013, published 2014).

- pKa: 4.4
SMILES: NCCCCCC(=O)O [6-aminocaproic acid]
